In patent US12595269B2, “Morpholine-like monoamine releasers” (Solvonis Therapeutics Ireland Holdings Limited, priority 2022, dated 2026):
“Also recorded” adds a separate entry of the source.

Columns and labels:
[1] = Apparent permeability (Papp AB) in MDCKII cells; type: in vitro ADME, Canine; settings: dog, MDCK; pH 7.4, apical to basolateral, 60 min
Method: (§1) Methods and Procedure: This study was conducted in compliance with previously described procedures to assure data integrity and adherence to GLP regulations. The experiments described herein were designed to evaluate the apparent permeability (Papp) of test compounds at pH 7.4. Additionally, the MDCKII-MDR1 cell line (Madin-Darby Canine Kidney clone II cell line heterologously expressing the human P-glycoprotein transporter) and mock cell line MDCKII were used to determine whether a compound acted as a P-gp substrate, in the absence and in the presence of the potent P-gp inhibitor. Test control items (digoxin, metoprolol, and atenolol) and control P-gp inhibitor (GF120918) stock solution were prepared in DMSO. Bidirectional assays (Apical to Basolateral [AB] and Basolateral to Apical [BA]) were run, in both the absence and presence of P-gp inhibitor GF120918 in MDCKII-MDR1 and mock cell line MDCKII, using as transport buffer HBSSH at a pH of 7.4 (n=3).
(§2) Compounds were tested at a single concentration (i.e. at 3 or 10 μM) at one time point (i.e. 60 min). Alternative concentrations or time-points may also be investigated. As reference compounds, digoxin (P-gp substrate), atenolol (low permeable compound) and metoprolol (high permeable compound) were included at a single concentration (e.g., 10 or 25 μM) and at single time point (e.g., 60 min). Digoxin transport was evaluated in two directions (apical-to-basolateral [AB] and basolateral-to-apical [BA]) in the absence and presence of GF120918 or in mock cells, MDCKII (n=3). Atenolol and metoprolol were only tested in the AB direction in absence of GF120918 or in mock cells, MDCKII (n=3). The integrity of the cell monolayer was evaluated after the permeability experiment using the paracellular permeability marker Lucifer yellow (LY) in the apical to basolateral direction in each well.
(§3) MDCKII or MDCKII-MDRI cells cultivated using DMEM (high glucose, GlutaMAX™ supplemented with pyruvate, 10% FBS HI and Pen/Strep) and seeded onto microporous PET (Polyethylene Terephthalate) membranes in HTS 96-Multiwell Insert plates at density of ˜175,000-245,000 cells/cm^2 (25000-35000 cells/well; 50 μL/well) in DMEM medium and incubated for 3-4 days at 37° C.-5% CO2. Medium was changed a day before the experiment.
(§4) Stock solutions of test items were prepared in DMSO at a concentration of 5 or 10 mM and stored at −20° C. until use. The potent P-gp inhibitor, GF120918 (stock solution 10 mM) and the reference controls digoxin, atenolol, metoprolol (stock solutions 3 or 10 mM) were prepared in DMSO and stored at −20° C. until use.
Donor working solutions of test items and reference controls will be prepared at a concentration of 10 or 25 μM, diluting the stock solutions in HBSSH. Receiver working solutions contained transport buffer only. […]
MDCKII and MDCKII-MDR1 cells were preincubated (37° C., 15 to 30 minutes) in receiver working solutions containing transport buffer on apical (A) and basolateral (B) sides. Following pre-incubation, test items and control items (digoxin) transport were measured in two directions (apical to basolateral [AB]) and basolateral to apical [BA]), and these directions were performed in triplicate sets of wells, in both the absence and presence of […] GF120918 or mock MDCKII cells. […] Transport of permeability reference controls, atenolol and metoprolol, were measured in one direction (apical to basolateral [AB]) (n=3). […]

[2] = molecular target: T1, human P-glycoprotein (MDR1) (Homo sapiens, UniProt P08183); test: P-gp substrate assessment, efflux ratio in MDCKII-MDR1 cells; type: in vitro ADME; settings: dog, MDCK-MDR1, pH 7.4; efflux ratio; P-gp substrate if ratio >2 and reduced by inhibitor; read-out: B/A ratio in MDCKII-MDR1 cells
T1 construct: expressed in transfected cells; host or cells: MDCKII (canine kidney)
Method: as §1, §2, §3, §4
(§5) Donor working solutions of test items and reference controls will be prepared at a concentration of 10 or 25 μM, diluting the stock solutions in HBSSH. Receiver working solutions contained transport buffer only. All working solutions were prepared such that the final concentration of DMSO was <1% (v/v). A donor working solution containing LY was also prepared in transport buffer at 100 µM.
(§6) MDCKII and MDCKII-MDR1 cells were preincubated (37° C., 15 to 30 minutes) in receiver working solutions containing transport buffer on apical (A) and basolateral (B) sides. Following pre-incubation, test items and control items (digoxin) transport were measured in two directions (apical to basolateral [AB]) and basolateral to apical [BA]), and these directions were performed in triplicate sets of wells, in both the absence and presence of […] GF120918 or mock MDCKII cells. For [AB] directional transport, 75 μL of donor working solution was added to the A (apical) compartment and 235 μL of receiver working solution was added to the B (basolateral) compartment. For [BA] directional transport, 235 μL donor working solution with test items or reference controls was added to the B compartment and 75 μL receiver working solution was added to the A compartment. Transport of permeability reference controls, atenolol and metoprolol, were measured in one direction (apical to basolateral [AB]) (n=3). […]

[3] = molecular target: T2, human P-glycoprotein transporter (Homo sapiens, UniProt P08183); test: as above; type: in vitro ADME; settings: P-gp substrate classification, MDCKII-MDR1 cells
T2 construct: expressed in transfected cells; host or cells: MDCKII (canine kidney)
Method: as §1, §2, §3, §4, §5, §6

T1 sequence (P08183 whole entry): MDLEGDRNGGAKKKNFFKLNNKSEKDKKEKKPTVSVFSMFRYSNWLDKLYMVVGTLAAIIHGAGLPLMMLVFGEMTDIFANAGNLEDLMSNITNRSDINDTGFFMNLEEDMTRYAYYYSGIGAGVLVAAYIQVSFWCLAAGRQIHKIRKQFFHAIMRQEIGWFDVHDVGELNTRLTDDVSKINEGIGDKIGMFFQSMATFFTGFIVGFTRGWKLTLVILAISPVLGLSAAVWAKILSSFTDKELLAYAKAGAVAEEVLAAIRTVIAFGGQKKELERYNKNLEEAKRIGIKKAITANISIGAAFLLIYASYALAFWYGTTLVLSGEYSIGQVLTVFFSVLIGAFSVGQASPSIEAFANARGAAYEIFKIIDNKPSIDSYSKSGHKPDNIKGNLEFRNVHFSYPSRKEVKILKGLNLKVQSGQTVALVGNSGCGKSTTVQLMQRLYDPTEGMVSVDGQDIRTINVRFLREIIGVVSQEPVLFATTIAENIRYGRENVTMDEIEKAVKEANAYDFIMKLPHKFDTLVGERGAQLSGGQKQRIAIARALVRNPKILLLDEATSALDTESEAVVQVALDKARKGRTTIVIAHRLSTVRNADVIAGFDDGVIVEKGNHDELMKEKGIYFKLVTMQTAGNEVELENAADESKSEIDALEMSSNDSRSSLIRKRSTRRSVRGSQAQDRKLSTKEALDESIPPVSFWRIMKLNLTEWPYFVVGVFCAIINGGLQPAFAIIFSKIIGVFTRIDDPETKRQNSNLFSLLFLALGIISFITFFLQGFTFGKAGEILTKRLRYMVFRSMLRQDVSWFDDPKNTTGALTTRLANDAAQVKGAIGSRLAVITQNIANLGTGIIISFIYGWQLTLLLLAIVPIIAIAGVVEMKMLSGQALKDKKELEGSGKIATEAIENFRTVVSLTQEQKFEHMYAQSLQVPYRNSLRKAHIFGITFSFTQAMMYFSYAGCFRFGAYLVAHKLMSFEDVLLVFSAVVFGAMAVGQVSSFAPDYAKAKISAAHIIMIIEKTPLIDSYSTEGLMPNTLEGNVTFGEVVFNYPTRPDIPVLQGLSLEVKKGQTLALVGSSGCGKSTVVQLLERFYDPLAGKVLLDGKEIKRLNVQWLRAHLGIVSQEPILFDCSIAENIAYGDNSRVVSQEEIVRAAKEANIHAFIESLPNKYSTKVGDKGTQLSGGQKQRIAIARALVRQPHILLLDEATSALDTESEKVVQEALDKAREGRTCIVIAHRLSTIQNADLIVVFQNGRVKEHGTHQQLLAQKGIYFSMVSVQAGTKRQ
T2 sequence (P08183 whole entry): as above

SMILES	Papp A→B at 60 min [1] [×10⁻⁶ cm/s]	efflux ratio at 60 min [2]	Substrate Classification [3]
Clc1ccc([C@]23CN[C@H](CO2)C3)cc1Cl (single isomer, unassigned) [516A]	15.8	0.73	pGP-NO
Clc1ccc([C@@]23CN[C@@H](CO2)C3)cc1Cl (single isomer, unassigned) [518A]	17.3	0.7	not determined to be a substrate for P-gp; also recorded: pGP-NO
Clc1ccc(C23CNC(CO2)C3)cc1Cl (stereo not drawn) [522A, 1-(3,4-dichlorophenyl)-2-oxa-5-azabicyclo[2.2.1]heptane]	9.45	0.83	not determined to be a substrate for P-gp; also recorded: pGP-NO
CNC(C)Cc1ccc2c(c1)OCO2 (stereo not drawn) [MDMA, reference compound]	14	1.5	not a P-gp substrate
